The NIST ThermoML archive (doi:10.1021/je049925a)

Conditions: Liquid; for speed of sound: Sing-around technique in a fixed-path interferometer; for vapor or sublimation pressure: Closed cell (Static) method

CC(F)F [1,1-difluoroethane]
Conditions	speed of sound [m/s]
243.15 K, 138 kPa	920.2
243.15 K, 442 kPa	922.3
243.15 K, 595 kPa	923.2
243.15 K, 1302 kPa	927.8
243.15 K, 1815 kPa	931
243.15 K, 2160 kPa	933.1
243.15 K, 2762 kPa	936.9
243.15 K, 3217 kPa	939.9
243.15 K, 3854 kPa	943.7
243.15 K, 4428 kPa	947.1
243.15 K, 5359 kPa	952.7
243.15 K, 6355 kPa	958.6
243.15 K, 7657 kPa	966.2
243.15 K, 8846 kPa	973.1
243.15 K, 10231 kPa	981
243.15 K, 11681 kPa	989
243.15 K, 13279 kPa	997.6
243.15 K, 14943 kPa	1005.5
243.15 K, 16723 kPa	1015.9
243.15 K, 17442 kPa	1019.5
243.15 K, 18731 kPa	1026.3
243.15 K, 20194 kPa	1033.7
243.15 K, 22819 kPa	1046.4
243.15 K, 25117 kPa	1058.6
243.15 K, 27154 kPa	1068.9
243.15 K, 30242 kPa	1084.3
263.15 K, 407 kPa	822.3
263.15 K, 581 kPa	823.3
263.15 K, 759 kPa	824.6
263.15 K, 928 kPa	825.5
263.15 K, 1550 kPa	831.3
263.15 K, 2228 kPa	835.9
263.15 K, 2461 kPa	837.6
263.15 K, 3130 kPa	842.9
263.15 K, 3429 kPa	844.7
263.15 K, 3914 kPa	848.6
263.15 K, 5038 kPa	856.2
263.15 K, 5789 kPa	861.4
263.15 K, 6568 kPa	866.7
263.15 K, 7201 kPa	871
263.15 K, 7967 kPa	876.3
263.15 K, 8899 kPa	881.9
263.15 K, 9893 kPa	888.5
263.15 K, 11531 kPa	898.7
263.15 K, 13616 kPa	912
263.15 K, 15466 kPa	922.7
263.15 K, 17421 kPa	934.4
263.15 K, 18552 kPa	941
263.15 K, 19791 kPa	947.4
263.15 K, 21881 kPa	959.5
263.15 K, 25895 kPa	980.9
263.15 K, 27572 kPa	989.5
263.15 K, 29409 kPa	998.8
283.15 K, 547 kPa	722.7
283.15 K, 750 kPa	724.6
283.15 K, 1038 kPa	727.4
283.15 K, 1402 kPa	731.2
283.15 K, 1697 kPa	733.8
283.15 K, 2322 kPa	739.5
283.15 K, 2793 kPa	743.7
283.15 K, 3256 kPa	747.8
283.15 K, 3975 kPa	754
283.15 K, 4329 kPa	756.9
283.15 K, 5020 kPa	762.5
283.15 K, 6373 kPa	773.5
283.15 K, 7420 kPa	781.9
283.15 K, 8061 kPa	787
283.15 K, 9151 kPa	795.4
283.15 K, 10246 kPa	803.6
283.15 K, 11356 kPa	811.6
283.15 K, 13100 kPa	824
283.15 K, 14824 kPa	835.9
283.15 K, 16147 kPa	844.8
283.15 K, 18020 kPa	857
283.15 K, 19869 kPa	868.3
283.15 K, 22681 kPa	885.6
283.15 K, 24751 kPa	897.6
283.15 K, 27174 kPa	911.6
283.15 K, 29569 kPa	925.1
298.15 K, 660 kPa	648
298.15 K, 1153 kPa	653.4
298.15 K, 1656 kPa	658.8
298.15 K, 2142 kPa	663.6
298.15 K, 3104 kPa	674.1
298.15 K, 3609 kPa	679.2
298.15 K, 4115 kPa	684.3
298.15 K, 5023 kPa	692.9
298.15 K, 5998 kPa	702.2
298.15 K, 6939 kPa	710.9
298.15 K, 8037 kPa	720.6
298.15 K, 9271 kPa	731.2
298.15 K, 10321 kPa	740.1
298.15 K, 11735 kPa	751.5
298.15 K, 13300 kPa	763.9
298.15 K, 14789 kPa	775.3
298.15 K, 16388 kPa	787.1
298.15 K, 18041 kPa	799
298.15 K, 19521 kPa	809.3
298.15 K, 20530 kPa	816.2
298.15 K, 22781 kPa	831.1
298.15 K, 24289 kPa	840.6
298.15 K, 26870 kPa	856.4
298.15 K, 30717 kPa	878.8
313.15 K, 1222 kPa	575.1
313.15 K, 1721 kPa	581.7
313.15 K, 2288 kPa	589.2
313.15 K, 2776 kPa	595.3
313.15 K, 3587 kPa	605.3
313.15 K, 4184 kPa	612.4
313.15 K, 4942 kPa	621
313.15 K, 6282 kPa	635.8
313.15 K, 7106 kPa	644.5
313.15 K, 8134 kPa	655.1
313.15 K, 9180 kPa	665.6
313.15 K, 9927 kPa	672.7
313.15 K, 11390 kPa	686.3
313.15 K, 12765 kPa	698.6
313.15 K, 15195 kPa	719.2
313.15 K, 16072 kPa	726.4
313.15 K, 17264 kPa	736
313.15 K, 19072 kPa	749.8
313.15 K, 21055 kPa	764.7
313.15 K, 22659 kPa	776.2
313.15 K, 25122 kPa	793.3
313.15 K, 27530 kPa	808.2
313.15 K, 29895 kPa	822.3
333.15 K, 2129 kPa	478.7
333.15 K, 2606 kPa	487.2
333.15 K, 3860 kPa	507.8
333.15 K, 4725 kPa	520.6
333.15 K, 5932 kPa	538
333.15 K, 7142 kPa	552.1
333.15 K, 8008 kPa	565.1
333.15 K, 9016 kPa	577.2
333.15 K, 10079 kPa	589.7
333.15 K, 11228 kPa	602.3
333.15 K, 13279 kPa	623.8
333.15 K, 15330 kPa	643.8
333.15 K, 17092 kPa	660.1
333.15 K, 18393 kPa	671.6
333.15 K, 19875 kPa	684.3
333.15 K, 22222 kPa	702.8
333.15 K, 24752 kPa	723.7
333.15 K, 24836 kPa	723.7
333.15 K, 26902 kPa	738.8
333.15 K, 29698 kPa	758.6

Conditions	vapor or sublimation pressure [kPa]
243.15 K	73
263.15 K	179
283.15 K	372
298.15 K	595
313.15 K	907
333.15 K	1499
